Assays:
Details in all cases: incubation time: 72 h
BT-474 [1] = assay: normalised response (% of control), CellTox Green; higher = less cell death (100 = DMSO, 0 = benzethonium chloride kill control)
Method in brief: (§1)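 After 72 h with compound in 384-well plates, breast cancer cell lines seeded as 20 µl suspension were read for CellTox Green fluorescence at 485/520 nm. CellTiter-Glo luminescence was then read after 10 min at room temperature. Compound was present at 5 concentrations in 10-fold steps over a 10,000-fold range set per compound, and plates were normalised to 0.1 % DMSO (100) and a positive kill control (0). Values are normalised signals, each at a single concentration.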

BT-549 [2] = assay: as above
Method in brief: as §1

CAL-120 [3] = assay: as above
Method in brief: as §1

CAL-148 [4] = assay: as above
Method in brief: as §1

CAL-51 [5] = assay: as above
Method in brief: as §1

CAL-85-1 [6] = assay: as above
Method in brief: as §1

DU-4475 [7] = assay: as above
Method in brief: as §1

HCC1143 [8] = assay: as above
Method in brief: as §1

HCC1599 [9] = assay: as above
Method in brief: as §1

HCC1937 [10] = assay: as above
Method in brief: as §1

HDQ-P1 [11] = assay: as above
Method in brief: as §1

Hs578T [12] = assay: as above
Method in brief: as §1

MCF-10A [13] = assay: as above
Method in brief: as §1

MDA-MB-231 [14] = assay: as above
Method in brief: as §1

MDA-MB-436 [15] = assay: as above
Method in brief: as §1

MDA-MB-453 [16] = assay: as above
Method in brief: as §1

MDA-MB-468 [17] = assay: as above
Method in brief: as §1

MFM-223 [18] = assay: as above
Method in brief: as §1

BT-474 [19] = assay: normalised response (% of control), CellTiter-Glo; higher = more viable cells (100 = DMSO, 0 = benzethonium chloride kill control)
Method in brief: as §1

BT-549 [20] = assay: as above
Method in brief: as §1

CAL-120 [21] = assay: as above
Method in brief: as §1

CAL-148 [22] = assay: as above
Method in brief: as §1

CAL-51 [23] = assay: as above
Method in brief: as §1

CAL-85-1 [24] = assay: as above
Method in brief: as §1

DU-4475 [25] = assay: as above
Method in brief: as §1

HCC1143 [26] = assay: as above
Method in brief: as §1

HCC1599 [27] = assay: as above
Method in brief: as §1

HCC1937 [28] = assay: as above
Method in brief: as §1

HDQ-P1 [29] = assay: as above
Method in brief: as §1

Hs578T [30] = assay: as above
Method in brief: as §1

MCF-10A [31] = assay: as above
Method in brief: as §1

MDA-MB-231 [32] = assay: as above
Method in brief: as §1

MDA-MB-436 [33] = assay: as above
Method in brief: as §1

MDA-MB-453 [34] = assay: as above
Method in brief: as §1

MDA-MB-468 [35] = assay: as above
Method in brief: as §1

MFM-223 [36] = assay: as above
Method in brief: as §1

SK-BR-3 = assay: as above
Method in brief: as §1

| SMILES | normalised response (BT-474 [1]) [%] | normalised response (BT-549 [2]) [%] | normalised response (CAL-120 [3]) [%] | normalised response (CAL-148 [4]) [%] | normalised response (CAL-51 [5]) [%] | normalised response (CAL-85-1 [6]) [%] | normalised response (DU-4475 [7]) [%] | normalised response (HCC1143 [8]) [%] | normalised response (HCC1599 [9]) [%] | normalised response (HCC1937 [10]) [%] | normalised response (HDQ-P1 [11]) [%] | normalised response (Hs578T [12]) [%] | normalised response (MCF-10A [13]) [%] | normalised response (MDA-MB-231 [14]) [%] | normalised response (MDA-MB-436 [15]) [%] | normalised response (MDA-MB-453 [16]) [%] | normalised response (MDA-MB-468 [17]) [%] | normalised response (MFM-223 [18]) [%] | normalised response (BT-474 [19]) [%] | normalised response (BT-549 [20]) [%] | normalised response (CAL-120 [21]) [%] | normalised response (CAL-148 [22]) [%] | normalised response (CAL-51 [23]) [%] | normalised response (CAL-85-1 [24]) [%] | normalised response (DU-4475 [25]) [%] | normalised response (HCC1143 [26]) [%] | normalised response (HCC1599 [27]) [%] | normalised response (HCC1937 [28]) [%] | normalised response (HDQ-P1 [29]) [%] | normalised response (Hs578T [30]) [%] | normalised response (MCF-10A [31]) [%] | normalised response (MDA-MB-231 [32]) [%] | normalised response (MDA-MB-436 [33]) [%] | normalised response (MDA-MB-453 [34]) [%] | normalised response (MDA-MB-468 [35]) [%] | normalised response (MFM-223 [36]) [%] | normalised response (SK-BR-3) [%] |
| --- | --- | --- | --- | --- | --- | --- | --- | --- | --- | --- | --- | --- | --- | --- | --- | --- | --- | --- | --- | --- | --- | --- | --- | --- | --- | --- | --- | --- | --- | --- | --- | --- | --- | --- | --- | --- | --- |
| O=C(O)C1(C(=O)O)CCC1.[NH2-].[NH2-].[Pt+2] [Carboplatin] (1000 nM) | 97.7 | 62 | 104 | 105 | 106 | 117 | 107 | 101 | 104 | 113 | 100 | 103 | 115 | 106 | 95.4 | 111 | 143 | 89.6 | 100 | 94.2 | 95.3 | 96.5 | 108 | 95.7 | 93.9 | 101 | 96.4 | 95 | 95.4 | 95.1 | 105 | 94.4 | 98.3 | 97.6 | 100 | 101 | 103 |
| O=C(/C=C/c1cccnc1)NCCCCC1CCN(C(=O)c2ccccc2)CC1 [Daporinad] (100 nM) | 98.6 | 105 | 91.2 | 95 | 105 | 101 | 98.8 | 104 | 78.1 | 27.6 | 103 | 20 | 98.1 | 112 | 103 | 104 | 125 | 70.9 | 28.7 | 100 | 17 | 69 | 102 | 16 | 4.65 | 14.3 | 0.54 | 21.3 | 19.1 | 8.08 | 11.1 | 25.8 | 54 | 14.3 | 0.85 | 4.38 | 107 |
| O=C(Cc1ccc(-c2ccc(OCCN3CCOCC3)cc2)cn1)NCc1ccccc1 [KX2-391] (1000 nM) | 80.8 | 76.7 | 90.4 | 74.2 | 30.9 | 68.1 | 101 | 113 | 71.9 | 115 | 99.8 | 38.4 | 38.9 | -59.4 | 83.1 | 49.9 | 23.4 | 44.2 | 52.5 | 43.6 | 59.4 | 41.4 | 19.3 | 45.3 | 45.6 | 61.5 | 14.8 | 72.8 | 70.8 | 19.7 | 75.2 | 46.6 | 25.2 | 72 | 33.4 | 44.9 | 14.9 |
| N#Cc1ccc(C(c2ccc(C#N)cc2)n2cncn2)cc1 [Letrozole] (1000 nM) | 100 | 89.6 | 103 | 101 | 98.2 | 105 | 100 | 101 | 85.3 | 67.6 | 102 | 106 | 114 | 98.9 | 87.6 | 96.4 | 75.9 | 88.4 | 94.4 | 103 | 99 | 94.7 | 80.8 | 98.8 | 98.8 | 108 | 104 | 103 | 102 | 97.1 | 101 | 96.5 | 105 | 99.3 | 103 | 100 | 99.5 |
| C=CCc1cccc(/C=N/NC(=O)CN2CCN(Cc3ccccc3)CC2)c1O [PAC-1] (1000 nM) | 98.8 | 61.6 | 102 | 104 | 73.1 | 105 | 101 | 119 | 98.4 | 92.5 | 112 | 104 | 112 | 107 | 89.7 | 106 | 128 | 102 | 97.9 | 75.1 | 97.5 | 101 | 67.2 | 98.5 | 102 | 103 | 120 | 92.7 | 93.3 | 103 | 116 | 96.8 | 86 | 93.6 | 101 | 100 | 109 |
| Nc1nc2[nH]cc(CCc3ccc(C(=O)N[C@@H](CCC(=O)O)C(=O)O)cc3)c2c(=O)[nH]1 [Pemetrexed] (1000 nM) | 99.5 | 82.9 | 100 | 89.9 | 98.2 | 105 | 98.2 | 115 | 92 | 112 | 110 | 101 | 103 | 88 | 108 | 106 | 122 | 103 | 54.4 | 97.1 | 88.1 | 95.7 | 90.6 | 54.5 | 89.5 | 93.3 | 67.4 | 70.3 | 83.2 | 17.1 | 97.6 | 65.6 | 80.7 | 92.2 | 90 | 91.5 | 68.2 |
| CC[C@H](C)C(=O)O[C@H]1C[C@H](O)C=C2C=C[C@H](C)[C@H](CC[C@@H](O)C[C@@H](O)CC(=O)O)[C@H]21 [Pravastatin] (1000 nM) | 99.3 | 85.2 | 100 | 99.8 | 87.6 | 93.4 | 99 | 59 | 95.4 | 95.4 | 112 | 95.2 | 108 | 85.4 | -66.6 | 105 | 134 | 98.5 | 85.8 | 96.3 | 95.3 | 87.6 | 54.5 | 95.5 | 82.1 | 94.3 | 70.8 | 86.9 | 92.2 | 98.4 | 96.1 | 89.9 | 18.9 | 87.7 | 89.9 | 85.5 | 86.2 |
| COc1cc([C@@H]2c3cc4c(cc3[C@@H](O[C@@H]3O[C@@H]5CO[C@@H](c6cccs6)O[C@H]5[C@H](O)[C@H]3O)[C@H]3COC(=O)[C@H]23)OCO4)cc(OC)c1O [Teniposide] (1000 nM) | 99.1 | 78.4 | 88.1 | 21.2 | 51.4 | 91 | 75 | -28.9 | 75.5 | 92.2 | 102 | 98.2 | 75.1 | 61.2 | 90.5 | 111 | 94.5 | 69.6 | 47.6 | 36.5 | 72.4 | 33.3 | 47.8 | 55.3 | 17.3 | 47.8 | 19.6 | 72.4 | 84.1 | 76.3 | 82.8 | 66 | 36.6 | 160 | 41.9 | 82.4 | 19.1 |
| CC(=O)Nc1cccc(-n2c(=O)n(C3CC3)c(=O)c3c(Nc4ccc(I)cc4F)n(C)c(=O)c(C)c32)c1 [Trametinib] (25 nM) | 102 | 93.6 | 87.6 | 108 | 113 | 66.6 | 64.6 | 116 | 105 | 124 | 92.3 | 113 | 81.3 | 66.4 | 97.2 | 111 | 103 | 101 | 73.5 | 107 | 71.7 | 90.7 | 105 | 68.9 | 0.42 | 72.5 | 101 | 81.3 | 61.2 | 83.2 | 35.7 | 72.1 | 91.2 | 111 | 88.7 | 94.6 | 102 |

Source: the supplement of paper PMC4862054
